One data set relates to rats. Briefly: Portal vein flow during 20-minute jejunal NaHS infusion in rats fed MgO diet. It is filed as in vivo, rat. An excerpt: FIG. 7. Portal venous flow recordings over 20-minute infusion of NaHS in two groups: Standard-diet-fed rats and Magnesium Oxide (MgO)-fed rats. Vehicle group shown as control; standard diet fed rats followed by water infusion. All measurements shown as percent change from baseline to accommodate for compensate for variation in baseline data; data shown as percent change±SEM. Baseline flow measurements recorded and average (shown as time 0) for each group. […] No difference is noted between MgO diet group and vehicle.
Rats were divided into three groups: Magnsium Oxide (MgO) diet, 500 mg MgO per 100 g chow, with NaHS infusion into small intestine (jejunim); standard diet with NaHS infusion into jejunum; and standard diet with control (vehicle) infusion into jejunim. Diets were administered for three days total. At the end of diet treatment, rats underwent surgery to measure porta vein flow before and after infusion of small intestine (jejunum) sodium hydrosulfide (NaHS), a hydrogen sulfide donor. Portal vein blood flow was recorded at baseline for 10 minutes and throughout 20-minute infusion periods. Data reported as percent change from baseline; infusion started at minute 1 of data shown. Blood flow data are reported as mean percent baseline change+/−SEM and were compared by 2-way RM-ANOVA.

The test system of data set [1] is Desulfovibrio vulgaris (DSV). Briefly: Production of hydrogen sulfide gas by DSV in the culture system. Type of data set: cell-based. The conditions noted are these: molybdate at 10 μM, 50 μM, and 1 mM; dose dependent. An excerpt:
FIG. 9. Effect of molybdate on the production of hydrogen sulfide gas measured in parts per billion (ppb) in the culture system.

In data set [2] the test system is Desulfovibrio vulgaris (DSV). The conditions noted are these: 14 hours. From the text: FIG. 8. Effect of molybdate on growth of Desulfovibrio vulgaris (DSV) on a culture plate.

Like-named read-outs stand apart in the source and are kept apart here.

In the case of `[O]=[Mg]` [MgO, Magnesium Oxide], in the data set on rats (500 mg MgO per 100 g chow for three days, 20-minute NaHS infusion, vehicle = standard diet, water infusion), the “Portal venous flow (percent change from baseline), MgO diet group versus vehicle” value is recorded as “No difference”. The “Portal vein blood flow, MgO diet group versus other two groups” value with rats (at minutes 20 of infusion) is listed as “Statistical significant difference”.
`[O]=[Mo](=[O])([O-])[O-]` [molybdate]: the “Generation of H2S gas by DSV (ppb)” value in data set [1] is on record as “suppressed the generation of H2S gas”. For the same compound, the “Growth of DSV” value is listed as “suppressed the growth” in data set [2] (molybdate at 10 μM, 50 μM, and 1 mM, dose-dependent); “completely suppressing the growth” in data set [2] (molybdate at 1 mM).

The values are drawn from patent publication US20210060058A1, “COMPOSITIONS AND METHODS FOR TREATING HYDROGEN SULFIDE-MEDIATED HYPERDYNAMIC CIRCULATION” (priority 2019, published 2021).
